Experiments:
[1] = plasma kept at ambient temperature for 24 h; ref 24 (Huynh et al.); cited from earlier work
[2] = cited from earlier work
plasma albumin = settings: cited from earlier work
[3] = 6 h benchtop (early preanalytical) stability in whole blood and in plasma; format: in vitro ADME, human; settings: ambient temperature (25 °C), up to 6 h
Experimental: Six independent plasma samples were processed. The reference solutions were 140 µL acetonitrile-water 4:1 (v/v) mixtures spiked as described above. The mixtures and the reference solutions were subsequently diluted with 90 µL water. Internal standard-corrected matrix factors were calculated as the peak area ratios of the analytes and the internal standards in prepared plasma versus those in a neat solution. In the stability studies, the recoveries of IBR and DIB were calculated as the ratio of the concentrations measured after incubation and those measured at the beginning of the study.
The preanalytical stability of IBR and DIB was evaluated by adding 20 µL methanol solutions containing 500 ng/mL IBR and DIB to two 1.0 mL aliquots of blood freshly drawn into phlebotomy tubes containing K3-EDTA. Three samples, 3 mL each, were taken from three healthy volunteers (manuscript authors G.B.K., I.V. and Z.K.). One of the fractions was centrifuged at 3000 rpm and 10 °C for 10 min immediately after spiking the analytes, and plasma was separated. Both spiked whole blood and the separated plasma were kept at ambient temperature for 6 h. […] Fifty microliters was drawn from the supernatant of the whole blood sample as well as from the plasma, and was processed as described in Section 2.2.

[4] = cited from earlier work; remark: listed apart in the source

recovery at 9.8 ng/mL ([3]; human, plasma (separated from spiked K3-EDTA whole blood), plasma, all analyses): ≥ 85%
cases with recoveries lower than 85% (of fifteen analyses) ([3]; whole blood): two
SMILES: C=CC(=O)N1CCC[C@@H](n2nc(-c3ccc(Oc4ccccc4)cc3)c3c(N)ncnc32)C1 [Ibrutinib, 1-[(3R)-3-[4-Amino-3-(4-phenoxyphenyl)-1H-pyrazolo[3,4-d]pyrimidin-1-yl]-1-piperidinyl]-2-propen-1-one]
recoveries [1]: 46.7–72.9%
solubility in water [2]: poor
affinity to plasma albumin (plasma albumin): > 95%
oral bioavailability [4]: low
